According to patent US5622947A, “Benzoheterocyclic compounds and vasopressin antagonist and oxytocin antagonist compositions containing a benzoheterocyclic compound” (Otsuka Pharmaceutical Co., Ltd., priority 1992, dated 1997):
pIC50: −log10 of the molar value. Where a name gives a salt, the structure may show the parent alone.

Assays:
[1] = target: T1, V1 Recepter (rat liver plasma membrane preparations) (Rattus norvegicus, UniProt P30560); assay: V1 Recepter binding assay; settings: [3H]-Arg-vasopressin 2×10^-10 M, 37° C., 10 minutes, pH 8.0, rat liver plasma membrane
T1 construct: rat liver plasma membrane preparations; from tissue; host or cells: rat liver plasma membranes
Experimental: Test-1: V1 Recepter binding assay
By using rat liver plasma membrane preparations prepared according to Ichiraha's method [by Akira Ichihara: J. Bio. Chem., 258, 9283 (1983)], the plasma membrane (50,000 dpm, 2×10^-10 M) of [^3 H]-Arg-vasopressin and a test compound (60 μg, 10^-8 to 10^-4 M) were incubated at 37° C. for 10 minutes in 250 μl (in total volume) of 100 mM Tris-HCl buffer (pH=8.0), containing 5 mM MgCl2, 1 mM EDTA and 0.1% BSA. After the incubation, the mixture was filtered three times by using a glass filter (GF/F) so as to separate the membrane preparation by combining with vasopressin and then washed with the buffer (5 ml). This glass filter was taken out and mixed with a liquid of scintillation cocktail. The amount of [^3 H]-vasopressin combining with the membrane was measured by liquid scintillation counter and the rate of inhibitory effect of the test compound was calculated according to the following equation: […]
C1 : the amount of [^3 H]-vasopressin combining with the membrane in the presence of the test compound of a known amount,
(§1) C0 : the amount of [^3 H]-vasopressin combining with the membrane in the absence of the test compound,
B1 : the amount of [^3 H]-vasopressin combining with the membrane in the presence of the excess amount of vasopressin (10^-6 M).
The results are expressed as IC50 value, which is the concentration of the test compound required to achieve the inhitory effect in the rate of 50% and are shown in the following Table 156.

[2] = target: T2, V2 Recepter (rat kidney plasma membrane preparations) (Rattus norvegicus, UniProt Q00788); assay: V2 Recepter binding assay; settings: [3H]-Arg-vasopressin 4×10^-10 M, 4° C., pH 8.0, rat kidney plasma membrane
T2 construct: rat kidney plasma membrane preparations; from tissue; host or cells: rat kidney plasma membranes
Experimental: Test 2: V2 Recepter binding assay
By using rat kidney plasma membrane preparations prepared according to Hechter's method [by O. Hechter: J. Bio. Chem., 2.53, 3211 (1978)], the plasma membrane (100,000 dpm, 4×10^-10 M) of [^3 H]-Arg-vasopressin and a test compound (0.6 mg, 10^-10 to 10^-5 M) were incubated at 4° C. for 3 hours in 250 μl (in total volume) of 100 mM Tris-HCl buffer (pH=8.0), containing, 5 mM MgCl2, 1 mM EDTA and 0.1% BSA. After the incubation, the mixture, the mixture was filtered by using a glass filter (GF/F) so as to separate the membrane preparation combining with vasopressin, then washed twice with the buffer (5 ml). This glass filter was taken out and mixed with liquid scintillation cocktail. The amount of [^3 H]-vasopressin combining with the membrane was measured by a liquid scintillation counter and the rate of inhibitory effect of the test compound was calculated according to the following equation: Rate of the inhibitory
C1 : the amount of [^3 H]-vasopressin combining with the membrane in the presence of the testcompound of a known amount,
as §1
B1 : the amount of [^3 H]-vasopressin combining with the mebrane in the presence of the excess amount of vasopressin (10^-6 M).
The results are expressed as IC50 value, which is the concentration of the test compound required to achieve the inhibitory effect in the rate of 50%, and are shown in the following Table 157.

[3] = target: T3, Oxytocin receptor (uterin muscle membrane preparation) (Rattus norvegicus, UniProt P70536); assay: Oxytocin receptor binding assay; settings: [3H]-oxytocin 10^-9 M, 25°, one hour, pH 8.0, uterin muscle membrane, DES-treated
T3 construct: was homogenized, which was used as a membrane; from tissue; host or cells: uterine muscle membranes from diethylstilbestrol-treated animals
T3 sequence (P70536 1-388): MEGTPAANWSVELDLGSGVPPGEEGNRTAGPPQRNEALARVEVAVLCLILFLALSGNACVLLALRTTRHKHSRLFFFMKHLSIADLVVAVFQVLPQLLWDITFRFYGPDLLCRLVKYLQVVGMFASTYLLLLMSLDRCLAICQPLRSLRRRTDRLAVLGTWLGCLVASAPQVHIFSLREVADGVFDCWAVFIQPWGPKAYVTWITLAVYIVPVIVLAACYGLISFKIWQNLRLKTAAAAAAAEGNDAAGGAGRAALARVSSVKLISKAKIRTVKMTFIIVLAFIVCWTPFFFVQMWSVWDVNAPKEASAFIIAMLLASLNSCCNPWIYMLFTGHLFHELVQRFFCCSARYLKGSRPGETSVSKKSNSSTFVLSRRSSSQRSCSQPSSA
Experimental: Test-5 Oxytocin receptor binding assay
In accordance with Chan's method [by W. Y. Chan, et al.: Endocrinology, 126, 2095-2101 (1990)], the uterin muscle benn injected subcutaneously with diethylstilbe-sterol (DES) the day before and was homogenized, which was used as a membrane prepara tion. The membrane preparation (0.2 mg), [^3 H]-oxytocin (100,000 dpm, 10^-9 M), a test compound (10^-9 to 10^-5 M) were incubated at 25°. for one hour in 100 mM Tris-HCl buffer (pH=8.0, 250 μl) containing 5 mM MgCl2, 1 mM EDTA and 0.1% BSA. The mixture was filtered through a glass filter (GF/F) so as to separate the membrane preparation combining with [^3 H]-oxytocin, then, was washed twicw with the buffer (5 ml). The glass filter was put into a vial and mixed with Aquasole (a liquid scintillation cocktail). The amount of [^3 H]-oxytocin combining w ith the membrane was measured by a liquid scintillation counter. The rate of the inhibitory effect of the test compound was calculated according to the equation as follows: […]
C1 : the amount of [^3 H]-oxytocin combining with the membrane in the presence of a test compound (in known amount),
C0 : the amount of [^3 H]-oxytocin combinig with the membrane in the absence of a test compound,
B: the amount of [^3 H]-oxytocin combining with the membrane in the presence of the excess amount of oxytocin (5×10^-6 M).
The results are expressed as IC50 values, which is the concentration of the test compound required to achieve the inhibitory effect in the rate of 50%.

T1 sequence (P30560 whole entry): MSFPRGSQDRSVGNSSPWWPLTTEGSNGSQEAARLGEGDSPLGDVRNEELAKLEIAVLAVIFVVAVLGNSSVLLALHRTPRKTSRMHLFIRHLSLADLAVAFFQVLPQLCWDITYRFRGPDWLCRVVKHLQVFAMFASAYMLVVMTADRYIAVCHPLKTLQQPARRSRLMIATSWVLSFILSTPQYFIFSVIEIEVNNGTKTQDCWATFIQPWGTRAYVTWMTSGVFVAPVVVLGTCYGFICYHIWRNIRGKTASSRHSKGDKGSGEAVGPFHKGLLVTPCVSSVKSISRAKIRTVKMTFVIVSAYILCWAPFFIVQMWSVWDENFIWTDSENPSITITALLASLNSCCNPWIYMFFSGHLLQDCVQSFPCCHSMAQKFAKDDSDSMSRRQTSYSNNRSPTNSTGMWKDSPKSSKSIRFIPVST
T2 sequence (Q00788 whole entry): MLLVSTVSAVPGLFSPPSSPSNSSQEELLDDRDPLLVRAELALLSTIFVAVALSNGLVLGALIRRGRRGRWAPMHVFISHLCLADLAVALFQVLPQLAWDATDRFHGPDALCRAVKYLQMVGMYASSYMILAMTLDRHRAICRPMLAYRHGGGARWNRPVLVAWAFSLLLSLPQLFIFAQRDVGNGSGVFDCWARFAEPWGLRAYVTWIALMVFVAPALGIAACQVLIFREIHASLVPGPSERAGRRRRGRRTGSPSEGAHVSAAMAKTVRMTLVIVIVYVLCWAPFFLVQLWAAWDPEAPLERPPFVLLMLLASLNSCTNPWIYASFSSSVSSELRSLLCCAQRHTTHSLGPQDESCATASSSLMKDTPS

| SMILES | pIC50 [1] | pIC50 [2] | pIC50 [3] |
| --- | --- | --- | --- |
| COc1cc(NC(=O)c2ccccc2Cl)ccc1C(=O)N1CCCC(OCCSc2nccc(C)n2)c2cc(Cl)ccc21 (centres unmarked) [Example 140] | 6.55 | 7.34 | 5.37 |
| COc1cc(NC(=O)c2ccccc2Cl)ccc1C(=O)N1CCCC(OCC[S+]([O-])c2ncc[nH]2)c2cc(Cl)ccc21 (centres unmarked) [Example 144, 5-[2-(2-Imidazolyl)sulfinylethoxy]-7-chloro-1-[2-methoxy-4-(2-chlorobenzoylamino)benzoyl] 2,3,4,5-tetrahydro-1H-benzoazepine] | 7.26 | 8.00 | 6.45 |
| COc1cc(C(=O)N2CCCCc3cc(Cl)ccc32)ccc1NC(=O)c1ccccc1OCCCN1CCC(NC(C)=O)CC1 (single isomer, unassigned) [Example 72, 7-Chloro-1-[3-methoxy-4-{2-[3-(4-acetylamino-1-piperidinyl)propoxy]benzoylamino}benzoyl]-2,3,4,5-tetrahydro-1H-benzoazepine] | 8.92 | 7.13 |  |
| COc1cc(NC(=O)c2ccccc2Cl)ccc1C(=O)N1CCCC(OCCSc2ccncc2)c2cc(Cl)ccc21 (centres unmarked) [Example 139, 5-[2-(4-Pyridyl)thioethoxy]-7-chloro-1-[2-methoxy-4-(2-chlorobenzoylamino)benzoyl]-2,3,4,5-tetrahydro-1H-benzoazepine] | 6.92 | 7.92 | 6.00 |
| CNC(=NC#N)NCCOC1CCCN(C(=O)c2ccc(NC(=O)c3ccccc3Cl)cc2OC)c2ccc(Cl)cc21 (centres unmarked) [Example 149, 5-[2-(3-Methyl-2-cyanogianidino)ethoxy]-7-chloro-1-[2-methoxy-4-(2-chlorobenzoylamino)benzoyl]-2,3,4,5-tetrahydro-1H-benzoazepine] | 7.05 | 7.35 |  |
| COc1cc(NC(=O)c2ccccc2Cl)ccc1C(=O)N1CCCC(CC(=O)NCCC2CCCN2C)c2cc(Cl)ccc21 (centres unmarked) [Example 155, 5-[2-(1-Methyl-2-pyrrolidinyl)ethyl]-aminocarbonylmethyl-7-chloro-1-[2-methoxy-4-(2-chlorobenzoylamino)benzoyl]-2,3,4,5-tetrahydro-1H-benzoazepine] | 8.15 | 8.72 | 7.26 |
| COc1cc(NC(=O)c2ccccc2Cl)ccc1C(=O)N1CCCC(CC(=O)Nc2ccncc2)c2cc(Cl)ccc21 (centres unmarked) [Example 127, 5-(4-Pyridyl)aminocarbonylmethyl-7-chloro-1-[2-methoxy-4-(2-chlorobenzoylamino)benzoyl]-2,3,4,5-tetrahydro-1H-benzoazepine] | 7.64 | 8.40 | 7.49 |
| COc1cc(C(=O)N2CCCCc3cc(Cl)ccc32)ccc1NC(=O)c1ccccc1OCCCn1cncn1 [Example 73, 7-Chloro-1-[3-methoxy-4-{2-[3-(1,2,4-triazol-1-yl)-propoxy]benzoylamino}benzoyl]-2,3,4,5-tetrahydro-1H-benzoazepine] | 8.15 | 7.10 |  |
| COc1cc(NC(=O)c2ccccc2Cl)ccc1C(=O)N1CCCC(CC(=O)NCCc2cccn2C)c2cc(Cl)ccc21 (centres unmarked) [Example 154, 5-[2-(1-Methyl-2-pyrrolyl)ethyl]aminocarbonyl-methyl-7-chloro-1-[2-methoxy-4-(2-chlorobenzoylamino)benzoyl]-2,3,4,5-tetrahydro-1H-benzoazepine] | 7.68 | 7.92 | 6.71 |
| CC(C)NCCCCOc1ccccc1C(=O)Nc1ccc(C(=O)N2CCCC(CC(=O)N(C)C)c3cc(Cl)ccc32)cc1 (centres unmarked) [Example 162, 5-Dimethylaminocarbonylmethyl-7-chloro-1-{4-[2-(4-isopropylaminobutoxy)benzoylamino]-benzoyl}-2,3,4,5-tetrahydro-1H-benzoazepine] | 8.04 | 6.89 |  |
| COc1cc(NC(=O)c2ccccc2Cl)ccc1C(=O)N1CCCC(OCCNCC#N)c2cc(Cl)ccc21 (centres unmarked) [Example 151] | 7.34 | 8.10 |  |

Other lines, results leading:

| pIC50 [1] | pIC50 [2] | pIC50 [3] | SMILES |
| --- | --- | --- | --- |
| 8.44 | 8.37 |  | CCN(CCN(C)C)C(=O)COC1CCCN(C(=O)c2ccc(NC(=O)c3ccccc3Br)c(OC)c2)c2ccc(Cl)cc21 (centres unmarked) [Example 165, 5-[N-(2-Dimethylaminoethyl)-N-ethylamino]-carbonylmethoxy-7-chloro-[3-methoxy-4-(2-bromobenzoylamino)benzoyl]-2,3,4,5-tetrahydro-1H-benzoazepine] |
| 8.05 | 8.60 |  | COc1cc(NC(=O)c2ccccc2Cl)ccc1C(=O)N1CCCC(CC(=O)NCCN(C)C)c2cc(Cl)ccc21 (centres unmarked) [Example 89, 5-(2-Dimethylaminoethylamino)carbonylmethyl-7-chloro-1-[2-methoxy-4-(2-chlorobenzoylamino)benzoyl]-2,3,4,5-tetrahydro-1H-benzoazepine.cndot.hydrochloride] |
| 8.74 | 8.10 |  | COc1cc(C(=O)N2CCCC(CC(=O)N(C)CCN(C)C)c3cc(Cl)ccc32)ccc1NC(=O)c1ccccc1Br (centres unmarked) [Example 163, 5-[N-(2-Dimethylaminoethyl)-N-methylamino]-carbonylmethyl-7-chloro-1-[3-methoxy-4-(2-bromobenzoylamino)benzoyl]-2,3,4,5-tetrahydro-1H-benzoazepine] |
| 8.59 | 8.46 |  | CCN(CC)CCN(C)C(=O)CC1CCCN(C(=O)c2ccc(NC(=O)c3ccccc3Br)c(OC)c2)c2ccc(Cl)cc21 (centres unmarked) [Example 91, 5-[N-Methyl-N-(2-diethylaminoethyl)amino]-carbonylmethyl-7-chloro-1-[3-methoxy-4-(2-bromobenzoylamino)benzoyl]-2,3,4,5-tetrahydro-1H-benzoazepine] |
| 8.32 | 8.00 |  | COc1cc(C(=O)N2CCCC(OCC(=O)N3CCCN(C)CC3)c3cc(Cl)ccc32)ccc1NC(=O)c1ccccc1Br (centres unmarked) [Example 166, 5-(4-Methyl-1-homopiperazinyl)carbonylmethoxy-7-chloro-1-[3-methoxy-4-(2-bromobenzoylamino)benzoyl]-2,3,4,5-tetrahydro-1H-benzoazepine] |
